Assay results reported in patent US20260355196A1, “INHIBITORS AND DEGRADERS OF PIP4K PROTEIN” (Larkspur Biosciences, Inc., priority 2023, published 2026).

target: T1, PIP4K2C (Homo sapiens, UniProt Q8TBX8); assay: HiBiT PIP4K2C degradation assay in MOLT-4 cells (endogenous PIP4K2C C-terminally tagged with HiBiT); assay type: cell-based; set-up: untagged in primary human PBMCs and monocyte-derived dendritic cells; details: 6 hours of incubation time, rather than 24 hours; MOLT-4, top concentration 10 micromolar; read-out: HiBIT-degradation MOLT4 PIP4k2C DC50 (6 hours, marked *)
T1 sequence (Q8TBX8 1-421): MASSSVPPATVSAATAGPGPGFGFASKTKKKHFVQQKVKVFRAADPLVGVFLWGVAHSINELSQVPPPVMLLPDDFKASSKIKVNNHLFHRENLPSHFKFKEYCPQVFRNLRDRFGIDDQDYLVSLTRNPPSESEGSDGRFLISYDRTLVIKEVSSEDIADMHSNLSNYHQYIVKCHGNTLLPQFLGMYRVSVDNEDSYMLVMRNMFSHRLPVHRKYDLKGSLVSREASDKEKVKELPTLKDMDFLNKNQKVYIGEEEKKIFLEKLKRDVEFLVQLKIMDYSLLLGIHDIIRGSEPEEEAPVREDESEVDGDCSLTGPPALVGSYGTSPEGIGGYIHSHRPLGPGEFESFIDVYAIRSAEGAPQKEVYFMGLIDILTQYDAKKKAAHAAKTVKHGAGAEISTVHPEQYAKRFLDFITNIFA
How it was run: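 DC50 derived by Hill fit of luminescence from Nano-Glo HiBiT lytic detection. Cells were HiBiT knock-in MOLT-4 (C-terminal tag on endogenous PIP4K2C), exposed 6 h or 24 h at 37 C to compound, top concentration 10 micromolar, 3-fold steps, 10 points, duplicates.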

DC50, < 500 nM:
O=C1CCC(Nc2ccc(N3CCN(C[C@H]4CC[C@H](CNC(=O)[C@H]5CC[C@H](Nc6ncc(F)c(-c7cccc(N8CCCOC8=O)c7)n6)CC5)CC4)CC3)c(F)c2)C(=O)N1 (stereo partly drawn) [Compound 591, trans-(1r,4R)—N-(((1r,4R)-4-((4-(4-((2,6-dioxopiperidin-3-yl)amino)-2-fluorophenyl)piperazin-1-yl)methyl)cyclohexyl)methyl)-4-((5-fluoro-4-(3-(2-oxo-1,3-oxazinan-3-yl)phenyl)pyrimidin-2-yl)amino)cyclohexane-1-carboxamide]
O=C1CCC(Nc2ccc(C3CCN(CC4(O)CCN(C(=O)[C@H]5CC[C@H](Nc6ncc(F)c(-c7cccc(-c8ccc[nH]c8=O)c7)n6)CC5)CC4)CC3)c(F)c2)C(=O)N1 (stereo partly drawn) [Compound 581, 3-((3-fluoro-4-(1-((1-(trans-4-((5-fluoro-4-(3-(2-oxo-1,2-dihydropyridin-3-yl)phenyl)pyrimidin-2-yl)amino)cyclohexane-1-carbonyl)-4-hydroxypiperidin-4-yl)methyl)piperidin-4-yl)phenyl)amino)piperidine-2,6-dione]
O=C1CCC(Nc2ccc(C3CCN(C4CCC(NC(=O)C5CCC(Nc6ncc(F)c(-c7cccc(-c8ccc[nH]c8=O)c7)n6)CC5)CC4)CC3)c(F)c2)C(=O)N1 [Compound 435, trans-(1r,4R)—N-((1S,4R)-4-(4-(4-(((S)-2,6-dioxopiperidin-3-yl)amino)-2-fluorophenyl)piperidin-1-yl)cyclohexyl)-4-((5-fluoro-4-(3-(2-oxo-1,2-dihydropyridin-3-yl)phenyl)pyrimidin-2-yl)amino)cyclohexane-1-carboxamide]
Cc1ccn(-c2cccc(-c3nc(N[C@H]4CC[C@H](C(=O)N5CCC(O)(CN6CCC(c7ccc(NC8CCC(=O)NC8=O)cc7F)CC6)CC5)CC4)ncc3F)c2)c(=O)c1 (stereo partly drawn) [Compound 472, trans-3-[3-fluoro-4-[1-[[1-[4-[[5-fluoro-4-[3-(4-methyl-2-oxo-1-pyridyl)phenyl]pyrimidin-2-yl]amino]cyclohexanecarbonyl]-4-hydroxy-4-piperidyl]methyl]-4-piperidyl]anilino]piperidine-2,6-dione]
O=C1CCC(Nc2ccc(N3CCN([C@H]4CC[C@H](NC(=O)[C@H]5CC[C@H](Nc6ncc(F)c(-c7cccc(N8CCOCC8)c7)n6)CC5)CC4)CC3)c(F)c2)C(=O)N1 (stereo partly drawn) [Compound 661, trans-(1r,4R)—N-((1r,4R)-4-(4-(4-((2,6-dioxopiperidin-3-yl)amino)-2-fluorophenyl)piperazin-1-yl)cyclohexyl)-4-((5-fluoro-4-(3-morpholinophenyl)pyrimidin-2-yl)amino)cyclohexane-1-carboxamide]
O=C1CCC(Nc2ccc(N3CCC(N4CCC(C(=O)N[C@H]5CC[C@H](Nc6ncc(F)c(-c7cccc(N8CCOCC8)c7)n6)CC5)CC4)CC3)c(F)c2)C(=O)N1 (stereo partly drawn) [Compound 645, trans-1′-(4-((2,6-dioxopiperidin-3-yl)amino)-2-fluorophenyl)-N-(4-((5-fluoro-4-(3-morpholinophenyl)pyrimidin-2-yl)amino)cyclohexyl)-[1,4′-bipiperidine]-4-carboxamide]
O=C1CCC(Nc2ccc(C3CCN([C@H]4CC[C@H](C(=O)N[C@H]5CC[C@H](Nc6ncc(F)c(-c7cccc(-n8ccccc8=O)n7)n6)CC5)CC4)CC3)c(F)c2)C(=O)N1 (stereo partly drawn) [Compound 567, trans-(1r,4R)-4-(4-(4-((2,6-dioxopiperidin-3-yl)amino)-2-fluorophenyl)piperidin-1-yl)-N-((1r,4R)-4-((5-fluoro-4-(2-oxo-2H-[1,2′-bipyridin]-6′-yl)pyrimidin-2-yl)amino)cyclohexyl)cyclohexane-1-carboxamide]
O=C1CCC(Nc2ccc(N3CCC(N4CCC(NC(=O)[C@H]5CC[C@H](Nc6ncc(F)c(-c7cccc(N8CCCCC8=O)c7)n6)CC5)CC4)CC3)c(F)c2)C(=O)N1 (stereo partly drawn) [Compound 521, trans-N-(1′-(4-((2,6-dioxopiperidin-3-yl)amino)-2-fluorophenyl)-[1,4′-bipiperidin]-4-yl)-4-((5-fluoro-4-(3-(2-oxopiperidin-1-yl)phenyl)pyrimidin-2-yl)amino)cyclohexane-1-carboxamide]
O=C1CCC(Nc2ccc(N3CCN([C@H]4CC[C@H](C(=O)N[C@H]5CC[C@H](Nc6ncc(F)c(-c7cccc(-c8ccccc8)c7)n6)CC5)CC4)CC3)c(F)c2)C(=O)N1 (stereo partly drawn) [Compound 604, trans-(1r,4R)—N-((1r,4R)-4-((4-([1,1′-biphenyl]-3-yl)-5-fluoropyrimidin-2-yl)amino)cyclohexyl)-4-(4-(4-((2,6-dioxopiperidin-3-yl)amino)-2-fluorophenyl)piperazin-1-yl)cyclohexane-1-carboxamide]
O=C1CCC(Nc2ccc(N3CCC(CN4CCN(C(=O)[C@H]5CC[C@H](Nc6ncc(F)c(-c7cccc(-c8ccc[nH]c8=O)c7)n6)CC5)CC4)CC3)c(F)c2)C(=O)N1 (stereo partly drawn) [Compound 430, 3-((3-fluoro-4-(4-((4-(trans-4-((5-fluoro-4-(3-(2-oxo-1,2-dihydropyridin-3-yl)phenyl)pyrimidin-2-yl)amino)cyclohexane-1-carbonyl)piperazin-1-yl)methyl)piperidin-1-yl)phenyl)amino)piperidine-2,6-dione]
O=C1CCC(Nc2ccc(N3CCN(C4CCN(C(=O)O[C@H]5CC[C@H](Nc6ncc(F)c(-c7cccc(N8CCOCC8)c7)n6)CC5)CC4)CC3)c(F)c2)C(=O)N1 (stereo partly drawn) [Compound 673, trans-4-((5-fluoro-4-(3-morpholinophenyl)pyrimidin-2-yl)amino)cyclohexyl 4-(4-(4-((2,6-dioxopiperidin-3-yl)amino)-2-fluorophenyl)piperazin-1-yl)piperidine-1-carboxylate]
Cn1nc([C@H]2CCC(=O)NC2=O)c2ccc(C3CCN(CC4CCN(C(=O)O[C@H]5CC[C@H](Nc6ncc(F)c(-c7cccc(-n8ccccc8=O)c7)n6)CC5)CC4)CC3)cc21 (single isomer, unassigned) [Compound 639]
O=C1CCC(Nc2ccc(N3CCN(CC4(O)CCN(C(=O)[C@H]5CC[C@H](Nc6ncc(F)c(-c7cccc(N8CCCCC8)c7)n6)CC5)CC4)CC3)c(F)c2)C(=O)N1 (stereo partly drawn) [Compound 493, trans-3-[3-fluoro-4-[4-[[1-[4-[[5-fluoro-4-[3-(1-piperidyl)phenyl]pyrimidin-2-yl]amino]cyclohexanecarbonyl]-4-hydroxy-4-piperidyl]methyl]piperazin-1-yl]anilino]piperidine-2,6-dione]
O=C1CCC(Nc2ccc(N3CCN([C@H]4CC[C@H](NC(=O)[C@H]5CC[C@H](Nc6ncc(F)c(-c7cccc(N8CCCOC8=O)c7)n6)CC5)CC4)CC3)c(F)c2)C(=O)N1 (stereo partly drawn) [Compound 490, trans-N-(trans-4-(4-(4-((2,6-dioxopiperidin-3-yl)amino)-2-fluorophenyl)piperazin-1-yl)cyclohexyl)-4-((5-fluoro-4-(3-(2-oxo-1,3-oxazinan-3-yl)phenyl)pyrimidin-2-yl)amino)cyclohexane-1-carboxamide]
O=C1CCC(Nc2ccc(N3CCN(CC4(O)CCN(C(=O)[C@H]5CC[C@H](Nc6ncc(F)c(-c7cccc(C8CC8)c7)n6)CC5)CC4)CC3)c(F)c2)C(=O)N1 (stereo partly drawn) [Compound 492, trans-3-((4-(4-((1-(4-((4-(3-cyclopropylphenyl)-5-fluoropyrimidin-2-yl)amino)cyclohexane-1-carbonyl)-4-hydroxypiperidin-4-yl)methyl)piperazin-1-yl)-3-fluorophenyl)amino)piperidine-2,6-dione]
O=C1CCC(Nc2ccc(C3CCN(CC4(O)CCN(C(=O)[C@H]5CC[C@H](Nc6ncc(F)c(-c7cccc(C(=O)N8CC[C@H](O)C8)c7)n6)CC5)CC4)CC3)c(F)c2)C(=O)N1 (stereo partly drawn) [Compound 481, trans-3-((3-fluoro-4-(1-((1-(4-((5-fluoro-4-(3-((S)-3-hydroxypyrrolidine-1-carbonyl)phenyl)pyrimidin-2-yl)amino)cyclohexane-1-carbonyl)-4-hydroxypiperidin-4-yl)methyl)piperidin-4-yl)phenyl)amino)piperidine-2,6-dione]

same assay, conditions: 24 hours incubation, MOLT-4, top concentration 10 micromolar; read-out: HiBIT-degradation MOLT4 PIP4k2C 24 hours DC50

DC50, < 500 nM:
Cn1c(=O)n(C2CCC(=O)NC2=O)c2ccc(C3CCN(CC4CCN(CC(=O)N5CCC(Nc6ncc(Cl)c(-c7cccc(-c8ccccc8)c7)n6)CC5)CC4)CC3)cc21 (stereo not drawn) [Compound 47, 3-(5-(1-((1-(2-(4-((4-([1,1′-biphenyl]-3-yl)-5-chloropyrimidin-2-yl)amino)piperidin-1-yl)-2-oxoethyl)piperidin-4-yl)methyl)piperidin-4-yl)-3-methyl-2-oxo-2,3-dihydro-1H-benzo[d]imidazol-1-yl)piperidine-2,6-dione]
O=C(COc1ccc2c(c1)CN(C1CCC(=O)NC1=O)C2=O)NCCC(=O)N1CCC(C(=O)N2CCC(Nc3ncc(Cl)c(-c4cccc(-c5ccccc5)c4)n3)CC2)CC1 (stereo not drawn) [Compound 67, N-(3-(4-(4-((4-([1,1′-biphenyl]-3-yl)-5-chloropyrimidin-2-yl)amino)piperidine-1-carbonyl)piperidin-1-yl)-3-oxopropyl)-2-((2-(2,6-dioxopiperidin-3-yl)-1-oxoisoindolin-5-yl)oxy)acetamide]
